Results reported in patent US12447170B2, “Use of maribavir in treatment regimens” (priority 2021, dated 2025).

How the values were obtained:
[1] = Drug interaction summary: effect of co-administered drugs on maribavir pharmacokinetics (Tables 1-A, 1-B); details: concomitant drug with maribavir; observed and predicted
Excerpt: Drug interaction studies were summarized based on Example 2 and other available data (e.g., in vitro and clinical data).

[2] = Drug interaction summary: effect of maribavir 400 mg twice daily on co-administered drug pharmacokinetics (Tables 1-A, 1-C); assay type: in vivo, human; details: for Effect on Concentration (of concomitant drug): concomitant drug with maribavir, observed and predicted; for Geometric Mean Ratio of co-administered drug PK with/without maribavir (No Effect = 1.00), AUC / Geometric Mean Ratio of co-administered drug PK with/without maribavir (No Effect = 1.00), Cmax: digoxin 0.5 mg single dose
[3] = set-up: species or system human; details: in vivo
Excerpt: Accumulated data have shown that maribavir is metabolized primarily in the liver, and renal clearance is a minor route (representing less than 5 percent). VP 44469 (N-dealkylated Maribavir) was the principal metabolite of maribavir in both urine and feces. In plasma, unchanged maribavir and VP 44469 represented approximately 69% and 9.8% of total radioactivity, respectively. The hepatic metabolism of maribavir was primarily driven by cytochrome P450s. CYP3A4 and CYP1A2 were responsible for 70 to 85% and 15 to 30% of the CYP-driven pathways, respectively. Glucuronidation accounted for less than 20% of metabolism.
Distribution models evaluated included a full PBPK model and a minimal PBPK model, both of which consider liver and intestinal metabolism. Mass balance data from the [^14C] ADME study indicated a fraction absorbed of 0.83 or greater following oral administration of 400 mg dose of maribavir. Absorption models evaluated included a simple first-order absorption model and a more mechanistic “Advanced Dissolution Absorption and Metabolism” (ADAM) model.

[4] = in the presence of 400 mg twice daily maribavir, tacrolimus stable dose twice daily

| Compound | Effect on Concentration (of maribavir) [1] | Effect on Concentration (of concomitant drug) [2] | other results |
| --- | --- | --- | --- |
| NC(=O)N1c2ccccc2C=Cc2ccccc21 [Carbamazepine, reference compound] | ↓Maribavir | – | – |
| CO[C@H]1C[C@@H]2CC[C@@H](C)[C@@](O)(O2)C(=O)C(=O)N2CCCC[C@H]2C(=O)O[C@H]([C@H](C)C[C@@H]2CC[C@@H](OCCO)[C@H](OC)C2)CC(=O)[C@H](C)/C=C(\C)[C@@H](O)[C@@H](OC)C(=O)[C@H](C)C[C@H](C)/C=C/C=C/C=C/1C [Everolimus] | – | ↑Everolimus | – |
| CCC1(c2ccccc2)C(=O)NC(=O)NC1=O [Phenobarbital, reference compound] | ↓Maribavir | – | – |
| O=C1NC(=O)C(c2ccccc2)(c2ccccc2)N1 [Phenytoin, reference compound] | ↓Maribavir | – | – |
| CO[C@H]1/C=C/O[C@@]2(C)Oc3c(C)c(O)c4c(c3C2=O)C2=NC3(CCN(CC(C)C)CC3)NC2=C(NC(=O)/C(C)=C\C=C\[C@H](C)[C@H](O)[C@@H](C)[C@@H](O)[C@@H](C)[C@H](OC(C)=O)[C@@H]1C)C4=O [Rifabutin, reference compound] | ↓Maribavir | – | – |
| CO[C@H]1/C=C/O[C@@]2(C)Oc3c(C)c(O)c4c(O)c(c(/C=N/N5CCN(C)CC5)c(O)c4c3C2=O)NC(=O)/C(C)=C\C=C\[C@H](C)[C@H](O)[C@@H](C)[C@@H](O)[C@@H](C)[C@H](OC(C)=O)[C@@H]1C [Rifampin, reference compound] | ↓Maribavir | – | – |
| CO[C@H]1C[C@@H]2CC[C@@H](C)[C@@](O)(O2)C(=O)C(=O)N2CCCC[C@H]2C(=O)O[C@H]([C@H](C)C[C@@H]2CC[C@@H](O)[C@H](OC)C2)CC(=O)[C@H](C)/C=C(\C)[C@@H](O)[C@@H](OC)C(=O)[C@H](C)C[C@H](C)/C=C/C=C/C=C/1C [Sirolimus] | – | ↑Sirolimus | – |
| C=CC[C@@H]1/C=C(\C)C[C@H](C)C[C@H](OC)[C@H]2O[C@@](O)(C(=O)C(=O)N3CCCC[C@H]3C(=O)O[C@H](/C(C)=C/[C@@H]3CC[C@@H](O)[C@H](OC)C3)[C@H](C)[C@@H](O)CC1=O)[C@H](C)C[C@@H]2OC [Tacrolimus] | – | ↑Tacrolimus | increase of tacrolimus exposure by maribavir ([2]; co-administration with maribavir): 51%; Geometric Mean Ratio of co-administered drug PK with/without maribavir (No Effect = 1.00), Ctrough [2, 4]: 1.57; Geometric Mean Ratio of co-administered drug PK with/without maribavir (No Effect = 1.00), AUC [2, 4]: 1.51; Geometric Mean Ratio of co-administered drug PK with/without maribavir (No Effect = 1.00), Cmax [2, 4]: 1.38 |
| Nc1nc2cc(Cl)c(Cl)cc2n1[C@H]1O[C@@H](CO)[C@H](O)[C@@H]1O [VP 44469, N-dealkylated Maribavir] | – | – | share of total radioactivity in plasma [3]: ~9.8% |
| C[C@H]1O[C@@H](O[C@H]2[C@@H](O)C[C@H](O[C@H]3[C@@H](O)C[C@H](O[C@H]4CC[C@@]5(C)[C@H](CC[C@@H]6[C@@H]5C[C@@H](O)[C@]5(C)[C@@H](C7=CC(=O)OC7)CC[C@]65O)C4)O[C@@H]3C)O[C@@H]2C)C[C@H](O)[C@@H]1O [digoxin] | – | ↑digoxin | Geometric Mean Ratio of co-administered drug PK with/without maribavir (No Effect = 1.00), AUC [2, 4]: 1.21; Geometric Mean Ratio of co-administered drug PK with/without maribavir (No Effect = 1.00), Cmax [2, 4]: 1.25 |
